According to ChEMBL document CHEMBL1201862, “PubChem BioAssay data set” (2004):
Activity calls are given as the source filed them.

Columns and labels:
Large T antigen = Large T antigen (Simian virus 40, UniProt P03070); assay type: functional, Betapolyomavirus macacae;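 also: Confirmatory-stage PubChem screen for compounds that inhibit SV40 T antigen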
Protein skinhead-1 = target: T1, Protein skinhead-1 (Caenorhabditis elegans, UniProt P34707); assay type: functional
T1 sequence (P34707 whole entry): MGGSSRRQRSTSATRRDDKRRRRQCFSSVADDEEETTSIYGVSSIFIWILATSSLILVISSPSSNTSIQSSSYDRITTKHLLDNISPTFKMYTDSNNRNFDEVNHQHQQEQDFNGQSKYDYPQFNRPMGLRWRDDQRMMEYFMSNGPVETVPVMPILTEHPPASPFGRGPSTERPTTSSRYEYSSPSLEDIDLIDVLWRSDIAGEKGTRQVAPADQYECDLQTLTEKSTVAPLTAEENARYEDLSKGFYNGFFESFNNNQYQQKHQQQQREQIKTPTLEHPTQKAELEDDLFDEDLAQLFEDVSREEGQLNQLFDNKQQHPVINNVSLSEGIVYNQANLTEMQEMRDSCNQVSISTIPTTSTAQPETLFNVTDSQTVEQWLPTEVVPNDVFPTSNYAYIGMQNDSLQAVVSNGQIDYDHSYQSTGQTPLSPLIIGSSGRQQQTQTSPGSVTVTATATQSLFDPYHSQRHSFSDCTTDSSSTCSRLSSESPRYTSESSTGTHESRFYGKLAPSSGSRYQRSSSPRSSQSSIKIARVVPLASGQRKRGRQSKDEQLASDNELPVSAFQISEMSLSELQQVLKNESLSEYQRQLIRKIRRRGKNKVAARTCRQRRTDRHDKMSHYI

[1] = target: FAD-linked sulfhydryl oxidase ALR (Homo sapiens, UniProt P55789); assay: ALR-catalysed DTT oxidation blockers – biochemical, H2O2 detection, luminescence, cherry-pick, dose response (AID 493248)
Sequence of FAD-linked sulfhydryl oxidase ALR (P55789 whole entry): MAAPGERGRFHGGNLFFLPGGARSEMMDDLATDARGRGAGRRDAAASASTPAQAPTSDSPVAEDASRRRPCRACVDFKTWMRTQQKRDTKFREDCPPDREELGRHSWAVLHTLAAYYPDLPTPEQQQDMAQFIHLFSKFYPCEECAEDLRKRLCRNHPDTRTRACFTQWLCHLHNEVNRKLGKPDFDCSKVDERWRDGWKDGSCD

[2] = target: T2, Replicative DNA helicase DnaB (Mycobacterium tuberculosis, UniProt P9WMR3); assay: DnaB intein splicing inhibitors, dose response, biochemical, cell-free fluorescence (AID 449749); assay type: functional
T2 sequence (P9WMR3 whole entry): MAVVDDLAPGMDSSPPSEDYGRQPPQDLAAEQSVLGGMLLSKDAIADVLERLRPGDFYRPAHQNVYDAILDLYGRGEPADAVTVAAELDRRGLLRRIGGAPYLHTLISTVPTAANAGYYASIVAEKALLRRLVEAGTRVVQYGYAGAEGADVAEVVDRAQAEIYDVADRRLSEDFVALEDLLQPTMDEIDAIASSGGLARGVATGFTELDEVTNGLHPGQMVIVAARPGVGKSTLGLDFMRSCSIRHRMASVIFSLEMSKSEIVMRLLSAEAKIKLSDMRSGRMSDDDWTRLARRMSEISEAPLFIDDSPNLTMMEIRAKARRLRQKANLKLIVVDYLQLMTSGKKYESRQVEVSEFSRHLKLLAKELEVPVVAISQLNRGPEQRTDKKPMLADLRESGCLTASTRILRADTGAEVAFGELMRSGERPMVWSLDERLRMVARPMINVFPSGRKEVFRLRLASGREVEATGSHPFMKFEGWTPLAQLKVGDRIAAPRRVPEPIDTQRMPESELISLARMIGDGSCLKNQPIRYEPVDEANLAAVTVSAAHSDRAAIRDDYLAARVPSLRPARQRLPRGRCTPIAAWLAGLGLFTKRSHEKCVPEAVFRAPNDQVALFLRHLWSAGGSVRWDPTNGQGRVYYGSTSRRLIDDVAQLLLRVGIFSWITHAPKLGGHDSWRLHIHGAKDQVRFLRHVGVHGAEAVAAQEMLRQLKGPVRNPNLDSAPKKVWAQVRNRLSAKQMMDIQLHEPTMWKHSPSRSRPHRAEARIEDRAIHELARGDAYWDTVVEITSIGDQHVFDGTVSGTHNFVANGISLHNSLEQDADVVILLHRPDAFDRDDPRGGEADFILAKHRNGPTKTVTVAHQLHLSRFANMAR

Genome polyprotein = Genome polyprotein (dengue virus type 2, UniProt P29990); assay: flavivirus cap methylation enzyme inhibition – biochemical, confirmation dose response, primary screen (AID 588689); assay type: functional
Sequence of Genome polyprotein (P29990 2492-3391 limits assumed): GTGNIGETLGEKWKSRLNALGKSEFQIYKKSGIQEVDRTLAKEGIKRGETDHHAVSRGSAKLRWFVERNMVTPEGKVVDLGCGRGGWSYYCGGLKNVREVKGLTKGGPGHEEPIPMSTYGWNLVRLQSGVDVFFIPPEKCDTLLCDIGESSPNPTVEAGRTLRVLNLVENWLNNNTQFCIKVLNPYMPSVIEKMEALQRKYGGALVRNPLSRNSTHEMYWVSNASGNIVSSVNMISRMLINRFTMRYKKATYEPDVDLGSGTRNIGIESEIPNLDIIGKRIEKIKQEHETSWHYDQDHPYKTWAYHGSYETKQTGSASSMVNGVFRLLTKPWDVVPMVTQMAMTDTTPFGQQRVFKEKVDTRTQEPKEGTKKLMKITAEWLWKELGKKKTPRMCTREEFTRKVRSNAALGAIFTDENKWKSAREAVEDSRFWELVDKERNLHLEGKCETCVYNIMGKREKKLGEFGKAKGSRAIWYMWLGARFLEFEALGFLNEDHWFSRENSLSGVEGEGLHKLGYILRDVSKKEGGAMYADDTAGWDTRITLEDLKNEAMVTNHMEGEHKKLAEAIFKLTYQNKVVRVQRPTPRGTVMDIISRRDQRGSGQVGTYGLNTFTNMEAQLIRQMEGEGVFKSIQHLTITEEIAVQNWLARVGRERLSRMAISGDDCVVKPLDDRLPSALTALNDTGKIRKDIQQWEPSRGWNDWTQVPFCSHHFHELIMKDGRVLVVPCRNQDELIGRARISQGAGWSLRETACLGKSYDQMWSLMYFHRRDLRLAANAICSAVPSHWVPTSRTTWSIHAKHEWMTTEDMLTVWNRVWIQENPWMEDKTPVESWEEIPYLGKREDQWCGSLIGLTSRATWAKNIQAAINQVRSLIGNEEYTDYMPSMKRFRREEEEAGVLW

Protein RecA = target: T3, Protein RecA (Mycobacterium tuberculosis, UniProt P9WHJ3); assay: Fluorescence Cell-Free Homogeneous Dose Retest to Identify Inhibitors of RecA-Intein Splicing Activity. [Related pubchem assays (depositor defined):AID2097, AID2223, AID489010, AID492950]; assay type: functional
T3 sequence (P9WHJ3 whole entry): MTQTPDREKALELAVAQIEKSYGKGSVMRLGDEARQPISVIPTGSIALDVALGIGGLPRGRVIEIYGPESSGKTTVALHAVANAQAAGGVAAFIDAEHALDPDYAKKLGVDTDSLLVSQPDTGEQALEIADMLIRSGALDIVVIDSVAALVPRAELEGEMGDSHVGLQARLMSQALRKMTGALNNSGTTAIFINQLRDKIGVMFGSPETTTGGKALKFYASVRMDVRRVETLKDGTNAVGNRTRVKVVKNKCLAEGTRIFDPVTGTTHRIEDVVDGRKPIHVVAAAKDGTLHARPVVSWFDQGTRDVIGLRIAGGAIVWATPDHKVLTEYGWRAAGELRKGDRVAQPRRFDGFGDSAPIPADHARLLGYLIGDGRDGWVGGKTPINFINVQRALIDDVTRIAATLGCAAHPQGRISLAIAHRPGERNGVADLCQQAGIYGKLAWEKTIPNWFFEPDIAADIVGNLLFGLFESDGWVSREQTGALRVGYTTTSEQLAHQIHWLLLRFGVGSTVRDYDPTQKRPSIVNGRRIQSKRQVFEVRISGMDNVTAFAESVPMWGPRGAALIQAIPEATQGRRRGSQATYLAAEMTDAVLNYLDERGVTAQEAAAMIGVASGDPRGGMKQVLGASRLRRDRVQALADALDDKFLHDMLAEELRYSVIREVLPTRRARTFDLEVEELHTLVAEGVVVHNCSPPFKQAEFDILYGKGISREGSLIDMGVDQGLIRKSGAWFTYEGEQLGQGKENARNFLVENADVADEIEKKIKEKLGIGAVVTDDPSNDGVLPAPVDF

[3] = Luminescence Cell-Based Dose Confirmation HTS to Identify Activators of 5'UTR Stem-Loop Driven Alpha-Synuclein mRNA Translation in H4 Neuroglioblastoma Cells. [Related pubchem assays: 1829 (Project Summary), 1814 (Primary HTS)]; assay type: functional
[4] = target: T4, Corticotropin-releasing factor receptor 2/Corticotropin-releasing factor-binding protein (Homo sapiens, UniProt P24387+Q13324); assay: activators of CRF receptor 2 with binding protein – uHTS hits, confirmation (AID 602473); assay type: functional; conditions: read-out: EC50_Mean
T4 sequence (Q13324 whole entry): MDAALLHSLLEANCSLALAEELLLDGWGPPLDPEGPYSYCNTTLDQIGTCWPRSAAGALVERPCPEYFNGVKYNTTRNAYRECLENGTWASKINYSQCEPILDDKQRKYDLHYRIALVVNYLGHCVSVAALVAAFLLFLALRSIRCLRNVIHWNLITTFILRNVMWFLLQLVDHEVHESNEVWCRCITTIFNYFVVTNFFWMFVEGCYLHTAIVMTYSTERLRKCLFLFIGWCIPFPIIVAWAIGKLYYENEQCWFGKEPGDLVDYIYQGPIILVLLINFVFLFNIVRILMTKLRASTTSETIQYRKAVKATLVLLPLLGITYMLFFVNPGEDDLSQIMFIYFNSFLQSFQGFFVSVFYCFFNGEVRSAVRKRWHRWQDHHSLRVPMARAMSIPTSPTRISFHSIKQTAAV
T4 sequence (P24387 whole entry): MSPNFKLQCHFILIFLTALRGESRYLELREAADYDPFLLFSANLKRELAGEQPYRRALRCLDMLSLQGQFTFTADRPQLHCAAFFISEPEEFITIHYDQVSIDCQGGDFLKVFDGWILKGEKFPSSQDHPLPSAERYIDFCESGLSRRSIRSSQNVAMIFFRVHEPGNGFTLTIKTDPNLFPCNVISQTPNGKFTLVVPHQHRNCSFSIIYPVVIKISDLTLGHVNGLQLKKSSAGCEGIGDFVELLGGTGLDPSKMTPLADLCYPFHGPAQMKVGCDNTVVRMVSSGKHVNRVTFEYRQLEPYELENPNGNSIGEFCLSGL

[5] = target: T5, Zinc finger protein mex-5 (Caenorhabditis elegans, UniProt Q9XUB2); assay: potency of MEX-5 RNA-binding blockers – biochemical, C. elegans, fluorescence polarization, dose response (AID 1960)
T5 sequence (Q9XUB2 whole entry): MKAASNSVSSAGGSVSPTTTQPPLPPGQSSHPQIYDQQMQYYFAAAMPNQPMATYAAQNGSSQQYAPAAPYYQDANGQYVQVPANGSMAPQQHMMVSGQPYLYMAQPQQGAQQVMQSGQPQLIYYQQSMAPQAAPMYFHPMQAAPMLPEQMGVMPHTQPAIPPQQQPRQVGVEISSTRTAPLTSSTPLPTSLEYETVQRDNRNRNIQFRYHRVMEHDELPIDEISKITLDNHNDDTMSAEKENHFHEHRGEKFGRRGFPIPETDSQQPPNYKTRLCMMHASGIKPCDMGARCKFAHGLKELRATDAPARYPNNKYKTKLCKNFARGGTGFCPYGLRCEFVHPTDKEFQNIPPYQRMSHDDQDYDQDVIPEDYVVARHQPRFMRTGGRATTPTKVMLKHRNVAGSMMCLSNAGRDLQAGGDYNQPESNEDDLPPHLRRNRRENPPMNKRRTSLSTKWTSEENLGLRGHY

[6] = target: T6, RNA-binding protein pos-1 (Caenorhabditis elegans, UniProt G5EF15); assay: disruptors of C. elegans POS-1 RNA interaction – biochemical, fluorescence polarization, dose response (AID 1964);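 also: purified POS-1 fused to maltose binding protein made in E. coli; potency of compounds blocking POS-1 binding to fluorescent RNA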
T6 sequence (G5EF15 whole entry): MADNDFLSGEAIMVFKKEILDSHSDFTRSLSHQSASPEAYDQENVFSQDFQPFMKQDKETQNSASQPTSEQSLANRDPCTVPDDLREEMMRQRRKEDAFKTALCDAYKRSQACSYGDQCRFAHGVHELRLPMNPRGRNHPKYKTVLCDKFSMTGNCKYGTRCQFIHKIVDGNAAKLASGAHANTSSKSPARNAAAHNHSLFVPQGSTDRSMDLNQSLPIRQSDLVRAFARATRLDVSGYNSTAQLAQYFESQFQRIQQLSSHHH

[7] = Luminescence Cell-Based Dose Response HTS to Identify Activators of Luciferase Translation or Activity in H4 […] Cells. [Related pubchem assays: 1829 (Project Summary), 1814 (Primary HTS)]; assay type: functional
H4 = assay: Luminescence Cell-Based Dose Response HTS to Identify Activators of 5'UTR Stem-Loop Driven Prion Protein mRNA Translation in H4 Neuroglioblastoma Cells. [Related pubchem assays: 1829 (Project Summary), 1814 (Primary HTS)]; assay type: functional; conditions: Homo sapiens
[8] = target: T7, Rac GTPase-activating protein 1 (Homo sapiens, UniProt Q9H0H5); assay: blockers of MgcRacGAP-driven Rac1 GTP hydrolysis – biochemical, ADP Hunter fluorescence, primary and confirmatory, confirmation (AID 624330); assay type: functional
T7 sequence (Q9H0H5 whole entry): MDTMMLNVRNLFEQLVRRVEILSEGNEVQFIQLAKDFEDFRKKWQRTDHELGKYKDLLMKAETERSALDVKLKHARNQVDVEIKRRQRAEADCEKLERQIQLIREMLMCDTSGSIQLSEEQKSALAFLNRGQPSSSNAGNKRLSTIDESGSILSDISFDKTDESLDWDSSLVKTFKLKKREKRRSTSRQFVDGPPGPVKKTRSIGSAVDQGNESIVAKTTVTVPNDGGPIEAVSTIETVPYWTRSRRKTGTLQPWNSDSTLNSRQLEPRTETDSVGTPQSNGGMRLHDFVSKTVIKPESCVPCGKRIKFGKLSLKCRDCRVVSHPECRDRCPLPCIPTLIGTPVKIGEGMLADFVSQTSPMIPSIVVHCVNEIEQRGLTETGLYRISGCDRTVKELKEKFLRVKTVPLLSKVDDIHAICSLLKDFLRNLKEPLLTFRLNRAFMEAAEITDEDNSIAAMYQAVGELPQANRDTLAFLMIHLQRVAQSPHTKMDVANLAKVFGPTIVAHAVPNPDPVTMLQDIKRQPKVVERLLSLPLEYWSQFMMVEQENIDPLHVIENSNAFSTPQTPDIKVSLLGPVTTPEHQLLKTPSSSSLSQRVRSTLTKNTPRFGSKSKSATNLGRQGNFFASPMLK

Sequence of Large T antigen (P03070 whole entry): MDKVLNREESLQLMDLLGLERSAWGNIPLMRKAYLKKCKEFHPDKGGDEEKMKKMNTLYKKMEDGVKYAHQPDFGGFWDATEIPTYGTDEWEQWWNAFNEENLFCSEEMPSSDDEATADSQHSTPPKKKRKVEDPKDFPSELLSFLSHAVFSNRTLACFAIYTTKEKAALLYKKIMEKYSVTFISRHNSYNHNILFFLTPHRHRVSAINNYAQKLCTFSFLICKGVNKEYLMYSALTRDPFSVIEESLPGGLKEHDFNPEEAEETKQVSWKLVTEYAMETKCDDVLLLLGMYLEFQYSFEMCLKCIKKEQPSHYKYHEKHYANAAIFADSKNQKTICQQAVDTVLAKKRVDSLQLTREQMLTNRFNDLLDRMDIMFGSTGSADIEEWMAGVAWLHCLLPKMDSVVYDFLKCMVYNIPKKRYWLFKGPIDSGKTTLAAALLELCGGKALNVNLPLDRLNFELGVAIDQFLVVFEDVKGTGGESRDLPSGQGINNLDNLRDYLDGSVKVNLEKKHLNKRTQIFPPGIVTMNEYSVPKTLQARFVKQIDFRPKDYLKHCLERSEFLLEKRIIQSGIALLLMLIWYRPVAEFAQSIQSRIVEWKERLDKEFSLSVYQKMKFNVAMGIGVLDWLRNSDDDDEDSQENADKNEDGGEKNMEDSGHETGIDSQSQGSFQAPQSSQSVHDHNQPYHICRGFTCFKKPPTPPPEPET

For Clc1cc(NCc2cccs2)ccc1N1CCOCC1, the IC50 (Large T antigen) was 65.2 µM (active) and the IC50 (Protein skinhead-1) was > 100 µM (inactive).
With CN(C)c1ccc(/C=C/c2cc[n+]([O-])cc2)cc1 the IC50 (Large T antigen) was 11.4 µM (active).
In the case of COc1ccc(NC2CCCN(C(=O)CCn3cccn3)C2)cc1 (stereo not drawn), the IC50 (Large T antigen) is reported as 9.68 µM (active) and the AC50 [1] is reported as 2.78 µM (active).
For O=C(Nc1ccc(O)cc1)C1CCCO1 (stereo not drawn), the IC50 (Large T antigen) was 28.1 µM (active).
With O=C1C(Cl)=C(N2CCOCC2)C(=O)N1c1ccc(Br)cc1 the AC50 [2] was 4.11 µM (active), the IC50 (Genome polyprotein) was 36.2 µM (active) and the EC50 (Protein RecA) was 2.11 µM (active).
For Cc1cccc(-n2c(C)cc(C=C3C(=O)c4ccccc4C3=O)c2C)c1, the EC50 [3] was 54.2 µM (active), the EC50 [4] was 12.9 µM (active) and the EC50 [5] was 34.7 µM (inconclusive). For the same compound, the EC50 [6] was 46.6 µM (active), the EC50 [7] was 11.4 µM (active) and the EC50 (H4) was 7.1 µM (active).
For CN1C(=O)C(=Cc2ccccc2Oc2ccc(Cl)cc2)C(=O)N(C)C1=O, the IC50 (Genome polyprotein) was 41.5 µM (active).
In the case of COc1cc(/C=N/NC(=O)c2cnccn2)ccc1O, the IC50 (Large T antigen) is reported as 5.52 µM (active) and the IC50 [8] is reported as 20.3 µM (active).
